Assay results reported in ChEMBL document CHEMBL4602725 (J Med Chem, 2020).

Tests used:
Histone deacetylase 1 [1] = target: T1, Histone deacetylase 1 (Homo sapiens, UniProt Q13547); experiment: Inhibition of human recombinant HDAC1 pre-incubated for 30 mins before Ac-Leu- Gly-Lys(Ac)-AMC substrate addition and measured after 90 mins by fluorescence based assay
Histone deacetylase 8 = target: T2, Histone deacetylase 8 (Homo sapiens, UniProt Q9BY41); experiment: Inhibition of human recombinant HDAC8 pre-incubated for 30 mins before Ac-Leu- Gly-Lys(Ac)-AMC substrate addition and measured after 90 mins by fluorescence based assay
T2 sequence (Q9BY41 whole entry): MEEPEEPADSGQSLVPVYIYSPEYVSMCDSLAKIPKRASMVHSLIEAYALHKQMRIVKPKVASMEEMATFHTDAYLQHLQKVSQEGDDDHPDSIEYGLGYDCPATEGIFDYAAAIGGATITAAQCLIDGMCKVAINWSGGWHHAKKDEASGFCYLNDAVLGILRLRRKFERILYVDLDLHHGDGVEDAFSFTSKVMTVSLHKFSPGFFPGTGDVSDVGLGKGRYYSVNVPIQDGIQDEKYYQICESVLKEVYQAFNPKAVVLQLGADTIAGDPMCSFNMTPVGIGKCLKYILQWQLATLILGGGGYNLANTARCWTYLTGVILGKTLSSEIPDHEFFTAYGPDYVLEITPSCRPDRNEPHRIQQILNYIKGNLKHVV

MDA-MB-231 [2] = experiment: Cytotoxicity against human MDA-MB-231 cells assessed as reduction in cell viability incubated for 72 hrs by MTT assay; conditions: MDA-MB-231, 72 h
MM96L [3] = experiment: Cytotoxicity against human MM96L cells assessed as increase in intracellular caspase 3/7 release incubated for 72 hrs by Caspase-Glo 3/7 assay
A549 [4] = experiment: Cytotoxicity against human A549 cells assessed as reduction in cell viability incubated for 72 hrs by MTT assay; conditions: A549, 72 h
HeLa [5] = experiment: Cytotoxicity against human HeLa cells assessed as reduction in cell viability incubated for 72 hrs by MTT assay
MM96L [6] = experiment: Cytotoxicity against human MM96L cells assessed as reduction in cell viability incubated for 72 hrs by MTT assay
Histone deacetylase 2 = Histone deacetylase 2 (Homo sapiens, UniProt Q92769); experiment: Inhibition of human recombinant HDAC2 pre-incubated for 30 mins before Ac-Leu- Gly-Lys(Ac)-AMC substrate addition and measured after 90 mins by fluorescence based assay
HT-29 [7] = experiment: Cytotoxicity against human HT-29 cells assessed as increase in intracellular caspase 3/7 release incubated for 72 hrs by Caspase-Glo 3/7 assay; conditions: HT-29, 72 h
MDA-MB-231 [8] = experiment: Cytotoxicity against human MDA-MB-231 cells assessed as increase in intracellular caspase 3/7 release incubated for 72 hrs by Caspase-Glo 3/7 assay; conditions: MDA-MB-231, 72 h
Histone deacetylase 3 = Histone deacetylase 3 (Homo sapiens, UniProt O15379); experiment: Inhibition of human recombinant HDAC3 pre-incubated for 30 mins before Ac-Leu- Gly-Lys(Ac)-AMC substrate addition and measured after 90 mins by fluorescence based assay
HT-29 [9] = experiment: Cytotoxicity against human HT-29 cells assessed as reduction in cell viability incubated for 72 hrs by MTT assay; conditions: HT-29, 72 h
A549 [10] = experiment: Cytotoxicity against human A549 cells assessed as increase in intracellular caspase 3/7 release incubated for 72 hrs by Caspase-Glo 3/7 assay; conditions: A549, 72 h
HeLa [11] = experiment: Cytotoxicity against human HeLa cells assessed as increase in intracellular caspase 3/7 release incubated for 72 hrs by Caspase-Glo 3/7 assay
Histone deacetylase 1 [12] = target: T1, Histone deacetylase 1; experiment: Inhibition of HDAC1 in human MM96L cells assessed as activation of histone H4 acetylation at Lys5, Lys8, Lys12 and Lys16 residues by Western blot analysis; type: cell-based
NFF [13] = experiment: Cytotoxicity against human NFF cells assessed as reduction in cell viability incubated for 72 hrs by MTT assay
NFF [14] = experiment: Cytotoxicity against human NFF cells assessed as increase in intracellular caspase 3/7 release incubated for 72 hrs by Caspase-Glo 3/7 assay

Chain of Histone deacetylase 2 (Q92769 whole entry): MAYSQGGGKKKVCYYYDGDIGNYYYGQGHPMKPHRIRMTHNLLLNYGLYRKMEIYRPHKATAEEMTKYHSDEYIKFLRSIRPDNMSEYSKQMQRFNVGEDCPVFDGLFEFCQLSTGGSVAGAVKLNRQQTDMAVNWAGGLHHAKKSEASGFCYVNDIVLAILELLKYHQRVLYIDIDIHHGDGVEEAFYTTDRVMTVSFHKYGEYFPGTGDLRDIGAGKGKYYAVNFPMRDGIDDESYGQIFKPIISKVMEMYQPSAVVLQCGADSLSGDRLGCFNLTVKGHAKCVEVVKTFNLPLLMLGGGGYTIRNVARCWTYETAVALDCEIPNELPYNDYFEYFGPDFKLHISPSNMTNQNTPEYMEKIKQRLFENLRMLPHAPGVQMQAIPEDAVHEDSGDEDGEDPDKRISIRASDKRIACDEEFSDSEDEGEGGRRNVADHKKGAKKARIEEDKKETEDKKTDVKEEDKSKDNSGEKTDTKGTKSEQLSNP
T1 sequence (Q13547 whole entry): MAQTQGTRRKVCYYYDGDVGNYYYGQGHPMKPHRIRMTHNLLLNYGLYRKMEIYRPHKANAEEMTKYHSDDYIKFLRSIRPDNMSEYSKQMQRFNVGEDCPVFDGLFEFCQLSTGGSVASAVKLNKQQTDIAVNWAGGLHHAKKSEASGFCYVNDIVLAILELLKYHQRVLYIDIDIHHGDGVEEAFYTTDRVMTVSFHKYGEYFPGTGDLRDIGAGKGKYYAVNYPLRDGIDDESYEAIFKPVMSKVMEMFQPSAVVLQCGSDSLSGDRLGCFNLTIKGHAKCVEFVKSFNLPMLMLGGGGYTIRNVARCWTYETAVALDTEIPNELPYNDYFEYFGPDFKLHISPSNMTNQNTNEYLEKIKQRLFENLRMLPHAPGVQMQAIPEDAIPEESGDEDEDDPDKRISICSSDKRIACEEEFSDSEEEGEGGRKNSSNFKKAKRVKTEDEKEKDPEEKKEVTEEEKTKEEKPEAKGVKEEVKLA
Chain of Histone deacetylase 3 (O15379 whole entry): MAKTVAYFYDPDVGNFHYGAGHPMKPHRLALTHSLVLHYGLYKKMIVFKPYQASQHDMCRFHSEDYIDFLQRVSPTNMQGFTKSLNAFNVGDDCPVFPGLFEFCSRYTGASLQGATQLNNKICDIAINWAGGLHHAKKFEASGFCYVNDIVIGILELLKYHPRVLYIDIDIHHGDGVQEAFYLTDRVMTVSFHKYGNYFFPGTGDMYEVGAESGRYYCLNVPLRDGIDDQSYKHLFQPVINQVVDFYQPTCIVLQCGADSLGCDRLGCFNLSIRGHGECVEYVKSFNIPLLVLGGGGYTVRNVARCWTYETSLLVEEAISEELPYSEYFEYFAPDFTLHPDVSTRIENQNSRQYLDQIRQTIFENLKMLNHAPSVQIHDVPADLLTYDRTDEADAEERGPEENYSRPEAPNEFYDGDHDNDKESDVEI

Row | Compound | IC50 (Histone deacetylase 1 [1]) [nM] | further results
1 | O=C(NO)c1ccc(NC(=O)C2(c3ccccc3)CCOCC2)cc1 | 28 | –
2 | O=C(NO)c1ccc(NC(=O)C2(c3ccccc3)CCCC2)cc1 | 28 | –
3 | O=C(NO)c1ccc(NC(=O)C2(c3ccccc3)CCCC2)nc1 | 132 | –
4 | O=C(NO)c1ccc(NC(=O)C2(c3ccc(-c4ccccc4)c(F)c3)CCCC2)cc1 | 42 | –
5 | O=C(NO)c1ccc(NC(=O)C2(c3ccc(Cl)cc3)CCCC2)cc1 | 12 | –
6 | O=C(NO)c1ccc(NC(=O)C2(c3ccc(Cl)c(Cl)c3)CCOCC2)cc1 | 6 | –
7 | Nc1cccc(-c2ccc(C3(C(=O)Nc4ccc(C(=O)NO)cc4)CCCC3)cc2)c1 | 4 | –
8 | CC(C)C(C(=O)Nc1ccc(C(=O)NO)c(Cl)c1)c1ccccc1 (racemic) | 8680 | –
9 | O=C(O)c1cccc(-c2ccc(C3(C(=O)Nc4ccc(C(=O)NO)cc4)CCCC3)cc2)c1 | 2 | IC50 (Histone deacetylase 8): 118 nM; IC50 (MDA-MB-231 [2]): > 100000 nM; EC50 (MM96L [3]): > 100000 nM; IC50 (A549 [4]): > 100000 nM; IC50 (HeLa [5]): > 100000 nM; IC50 (MM96L [6]): > 100000 nM; IC50 (Histone deacetylase 2): 13 nM; EC50 (HT-29 [7]): > 100000 nM; EC50 (MDA-MB-231 [8]): > 100000 nM; IC50 (Histone deacetylase 3): 7 nM; IC50 (HT-29 [9]): > 100000 nM; EC50 (A549 [10]): > 100000 nM; EC50 (HeLa [11]): > 100000 nM
10 | O=C(NO)c1ccc(NC(=O)C2(c3ccc([N+](=O)[O-])cc3)CCOCC2)cc1 | 9 | –
11 | O=C(NO)c1ccc(NC(=O)C(c2ccccc2)c2ccccc2)cc1 | 250 | –
12 | CC(C)C(C(=O)Nc1ccc(C(=O)NO)cn1)c1ccccc1 (stereo unspecified) | 22 | –
13 | COc1ccc(C2(C(=O)Nc3ccc(C(=O)NO)cc3)CCCCC2)cc1-c1cccc(N)c1 | 10 | –
14 | CC(C)(C(=O)Nc1ccc(C(=O)NO)cc1)c1ccccc1 | 218 | –
15 | O=C(NO)c1ccc(NC(=O)C2(c3ccccc3)CCNCC2)cc1 | 12 | –
16 | O=C(NO)c1ccc(NC(=O)C2(c3ccc(C(F)(F)F)c(F)c3)CCCC2)cc1 | 227 | –
17 | CC(C)C(NC(=O)c1ccc(C(=O)NO)cc1)c1ccccc1 (racemic) | 2120 | –
18 | O=C(NO)c1ccc(NC(=O)C2(c3c[nH]c(-c4ccc(Br)cc4)n3)CCCC2)cc1 | 10 | –
19 | Cc1[nH]ncc1-c1ccc(C2(C(=O)Nc3ccc(C(=O)NO)cc3)CCCC2)cc1 | 5 | –
20 | O=C(NO)c1ccc(NC(=O)C2(c3ccccc3)CC2)cc1 | 93 | –
21 | CC(C)C(C(=O)Nc1ccc(C(=O)NO)cc1)c1ccccc1 (racemic) | – | IC50 (MDA-MB-231 [2]): 1500 nM; EC50 (MM96L [3]): 900 nM; IC50 (NFF [13]): 500 nM; IC50 (A549 [4]): 1500 nM; IC50 (HeLa [5]): 700 nM; EC50 (NFF [14]): 24300 nM; IC50 (MM96L [6]): 300 nM; EC50 (HT-29 [7]): 1700 nM; EC50 (MDA-MB-231 [8]): 2400 nM; IC50 (HT-29 [9]): 600 nM; EC50 (A549 [10]): 15600 nM; EC50 (HeLa [11]): 8100 nM
22 | O=C(NO)c1ccc(NC(=O)C2(c3ccccc3)CCCCC2)cc1 | 15 | –
23 | O=C(NO)c1ccc(NC(=O)C2(c3ccc4ccccc4c3)CCOCC2)cc1 | – | IC50 (Histone deacetylase 8): 44 nM; IC50 (MDA-MB-231 [2]): 100 nM; EC50 (MM96L [3]): 60 nM; IC50 (NFF [13]): 400 nM; IC50 (A549 [4]): 100 nM; IC50 (HeLa [5]): 30 nM; EC50 (NFF [14]): 4300 nM; IC50 (MM96L [6]): 20 nM; IC50 (Histone deacetylase 2): 8 nM; EC50 (HT-29 [7]): 200 nM; EC50 (MDA-MB-231 [8]): 300 nM; IC50 (Histone deacetylase 3): 2 nM; IC50 (HT-29 [9]): 40 nM; EC50 (A549 [10]): 2600 nM; inhibition (Histone deacetylase 1 [12]): Dose-dependent effect; EC50 (HeLa [11]): 700 nM
24 | CC(C)C(C(=O)Nc1ccc(C(=O)Nc2ccccc2N)cc1)c1ccccc1 (racemic) | 231 | –
25 | O=C(NO)c1ccc(NC(=O)C2(c3c[nH]c(-c4ccc([N+](=O)[O-])cc4)n3)CCCC2)cc1 | 6 | –
26 | O=C(NO)c1ccc(NC(=O)C2(c3csc(-c4ccccc4Oc4ccccc4)n3)CCCC2)cc1 | 431 | –
27 | Nc1ccc(C2(C(=O)Nc3ccc(C(=O)NO)cc3)CCOCC2)cc1 | 22 | –
28 | O=C(NO)c1ccc(NC(=O)C2(c3ccc(Br)cc3)CCCCC2)cc1 | 63 | –
29 | O=C(NO)c1ccc(NC(=O)C2(c3ccc4c(c3)OCO4)CCCCC2)cc1 | 42 | –
30 | O=C(Cc1ccccc1)Nc1ccc(C(=O)NO)cc1 | 75 | –

The next lines start with results.

Row | IC50 (Histone deacetylase 1 [1]) [nM] | Compound | further results
31 | 11 | O=C(NO)c1ccc(NC(=O)C2(c3ccc4ccccc4c3)CCCC2)cc1 | –
32 | 16 | O=C(NO)c1ccc(NC(=O)C2(c3ccc(-c4ccccc4)cc3)CCCC2)cc1 | –
33 | 23 | O=C(NO)c1ccc(NC(=O)C2(c3c[nH]c4ccccc34)CCCC2)cc1 | –
34 | 240 | O=C(NO)c1ccc(NC(=O)C2(c3ccc(-c4ccc(OCc5ccccc5)nc4)cc3)CCCC2)cc1 | –
35 | 12 | O=C(NO)c1ccc(NC(=O)C2(c3csc(-c4ccccc4)n3)CCCC2)cc1 | –
36 | 430 | CCC(CC)(C(=O)Nc1ccc(C(=O)NO)cc1)c1ccccc1 | –
37 | 15 | COc1cccc(-c2nc(C3(C(=O)Nc4ccc(C(=O)NO)cc4)CCCC3)cs2)c1 | –
38 | 4 | O=C(NO)c1ccc(NC(=O)C2(c3ccc(-c4cc[nH]n4)cc3)CCCC2)cc1 | –
39 | 7 | O=C(NO)c1ccc(NC(=O)C2(c3ccc(Br)cc3)CCCC2)cc1 | –
40 | 5 | O=C(NO)c1ccc(NC(=O)C2(c3ccc(-c4cccnc4)cc3)CCCC2)cc1 | –
41 | 0.94 | CC(=O)Nc1ccccc1-c1ccc(C2(C(=O)Nc3ccc(C(=O)NO)cc3)CCCC2)cc1 | –
42 | 8 | O=C(NO)c1ccc(NC(=O)C2(c3ccc(-c4ccc5[nH]ccc5c4)cc3)CCCC2)cc1 | –
43 | 3 | COc1ccc(C2(C(=O)Nc3ccc(C(=O)NO)cc3)CCCCC2)cc1-c1cn[nH]c1 | –
44 | 2 | O=C(NO)c1ccc(NC(=O)C2(c3ccc(Br)cc3)CCOCC2)cc1 | IC50 (Histone deacetylase 8): 59 nM; IC50 (Histone deacetylase 2): 17 nM; IC50 (Histone deacetylase 3): 4 nM; EC50 (Histone deacetylase 1 [12]): 600 nM; inhibition (Histone deacetylase 1 [12]): Dose-dependent effect
45 | 738 | CCCC(CCC)C(=O)Nc1ccc(C(=O)NO)cc1 | –
46 | 41 | O=C(NO)c1ccc(NC(=O)C2(c3ccc(F)cc3)CCCC2)cc1 | –

Row | IC50 (Histone deacetylase 1 [1]) [nM] | Compound | further results
47 | 3 | O=C(NO)c1ccc(NC(=O)C2(c3c[nH]c(-c4ccccc4)n3)CCCC2)cc1 | IC50 (Histone deacetylase 8): 41 nM; IC50 (Histone deacetylase 2): 21 nM; IC50 (Histone deacetylase 3): 10 nM
48 | 43 | C/C(=N\O)c1sccc1-c1ccc(C2(C(=O)Nc3ccc(C(=O)NO)cc3)CCCC2)cc1 | –
49 | 9 | COc1ccc(C2(C(=O)Nc3ccc(C(=O)NO)cc3)CCCCC2)cc1-c1ccccc1NC(C)=O | –
50 | 29 | COc1ccc(C2(C(=O)Nc3ccc(C(=O)NO)cc3)CCCCC2)cc1OC | –
51 | 439 | CC(C)C(C(=O)N(C)c1ccc(C(=O)NO)cc1)c1ccccc1 (racemic) | –
52 | 1060 | CC(C)C(C(=O)Nc1ccc(C(=O)NO)cc1Cl)c1ccccc1 (racemic) | –
53 | 8 | Cc1n[nH]c(C)c1-c1ccc(C2(C(=O)Nc3ccc(C(=O)NO)cc3)CCCC2)cc1 | –
54 | 10 | CC(=O)Nc1ccc(N)cc1-c1ccc(C2(C(=O)Nc3ccc(C(=O)NO)cc3)CCCCC2)cc1 | –
55 | 2 | O=C(NO)c1ccc(NC(=O)C2(c3ccc(-c4cn[nH]c4)cc3)CCOCC2)cc1 | –
56 | 43 | O=C(NO)c1ccc(NC(=O)C2(c3ccc4ccccc4c3)CCCCC2)cc1 | –
57 | 31 | COc1ccc(C2(C(=O)Nc3ccc(C(=O)NO)cc3)CCCCC2)cc1Br | –
58 | > 10000 | O=C(NO)c1ccc(NC(=O)C2(c3csc(-c4cccc(Oc5ccccc5)c4)n3)CCCC2)cc1 | –
59 | 3 | O=C(NO)c1ccc(NC(=O)C2(c3ccc(-c4cn[nH]c4)cc3)CCCC2)cc1 | –
60 | 5 | CC(=O)Nc1cccc(-c2ccc(C3(C(=O)Nc4ccc(C(=O)NO)cc4)CCCC3)cc2)c1 | –
61 | 2 | O=C(NO)c1ccc(NC(=O)C2(c3ccc(-c4cn[nH]c4)cc3)CCCCC2)cc1 | IC50 (Histone deacetylase 8): 69 nM; IC50 (Histone deacetylase 2): 10 nM; IC50 (Histone deacetylase 3): 2 nM
